Values of other authors in patent publication US20240374528A1, “[…] DOSAGE FORMS COMPRISING DEUTETRABENAZINE” (AUSPEX PHARMACEUTICALS, INC., priority 2021, published 2024).

Settings: relative to tetrabenazine; U.S. Pat. No. 8,524,733

## [2H]C([2H])([2H])Oc1cc2c(cc1OC([2H])([2H])[2H])[C@H]1CC(=O)[C@H](CC(C)C)CN1CC2 [Deutetrabenazine, (RR,SS)-1,3,4,6,7,11b-hexahydro-9,10-di(methoxy-D3)-3-(2-methylpropyl)-2H-benzo[a]quinolizin-2-one]
  half-life of active metabolites: increased half-life of its active metabolites
